This is an account of results in US20250122183A1 (Pfizer Inc., priority 2023, published 2025).

Holding throughout (assay type): biochemical
In one assay the target is KAT6A Full length enzyme (Homo sapiens (Human), UniProt Q92794). As to the kind of experiment: KAT6A assay (SAMDI-MS acetylation of H3 1-21 peptide). The note with it: Morrison equation fit; replicate number in parentheses; read-out: KAT6A Ki (nM) (replicate number).
The target of assay [1] is KAT7+BRPF1+EAF6+ING5 4 protein complex (Homo sapiens (Human), UniProt O95251). Nature of the assay: KAT7 BRPF1 assay (SAMDI-MS acetylation of H3 1-21 peptide). The note with it: Morrison equation fit; replicate number in parentheses.
Assay [2] addresses KAT7+BRPF2+EAF6+ING5 4 protein complex (Homo sapiens (Human), UniProt O95251). As to the kind of experiment: KAT7 BRPF2 assay (SAMDI-MS acetylation of H3 1-21 peptide). As to conditions: Morrison equation fit; replicate number in parentheses; read-out: KAT7 BRPF2 Ki (nM) (replicate number).
Assay [3] concerns the target KAT7+JADE1+EAF6+ING5 4 protein complex (Homo sapiens (Human), UniProt O95251). Nature of the assay: KAT7 JADE1 assay (SAMDI-MS acetylation of H3 1-21 peptide). As to conditions: Morrison equation fit; replicate number in parentheses; read-out: KAT7 JADE1 Ki (nM) (replicate number).
A further assay concerns the target KAT8 Full length enzyme (Homo sapiens (Human), UniProt Q9H7Z6). Nature of the assay: KAT8 assay (SAMDI-MS acetylation of H3 1-21 peptide). The note with it: Morrison equation fit; replicate number in parentheses; read-out: KAT8 Ki (nM) (replicate number).
The target in the next assay is KAT5 Full length enzyme (Homo sapiens (Human), UniProt Q92993). As to the kind of experiment: KAT5 assay (SAMDI-MS acetylation of H4 1-21 peptide). The note with it: Morrison equation fit; replicate number in parentheses; read-out: KAT5 Ki (nM) (replicate number).
Chain of KAT5 Full length enzyme (Q92993 whole entry): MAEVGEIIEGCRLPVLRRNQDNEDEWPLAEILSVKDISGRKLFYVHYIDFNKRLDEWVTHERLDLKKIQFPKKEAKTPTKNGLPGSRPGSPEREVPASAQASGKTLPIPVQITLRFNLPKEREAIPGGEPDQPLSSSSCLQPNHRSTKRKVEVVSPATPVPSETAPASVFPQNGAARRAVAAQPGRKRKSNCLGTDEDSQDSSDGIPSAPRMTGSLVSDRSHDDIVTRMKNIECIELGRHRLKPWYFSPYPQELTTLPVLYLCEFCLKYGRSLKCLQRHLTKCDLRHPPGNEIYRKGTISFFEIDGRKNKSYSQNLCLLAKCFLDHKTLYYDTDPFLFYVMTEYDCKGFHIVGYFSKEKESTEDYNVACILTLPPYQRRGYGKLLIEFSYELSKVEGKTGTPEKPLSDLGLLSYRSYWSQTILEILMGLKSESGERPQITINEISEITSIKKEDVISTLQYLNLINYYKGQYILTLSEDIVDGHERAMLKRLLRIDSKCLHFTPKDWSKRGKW

Chain of KAT8 Full length enzyme (Q9H7Z6 whole entry): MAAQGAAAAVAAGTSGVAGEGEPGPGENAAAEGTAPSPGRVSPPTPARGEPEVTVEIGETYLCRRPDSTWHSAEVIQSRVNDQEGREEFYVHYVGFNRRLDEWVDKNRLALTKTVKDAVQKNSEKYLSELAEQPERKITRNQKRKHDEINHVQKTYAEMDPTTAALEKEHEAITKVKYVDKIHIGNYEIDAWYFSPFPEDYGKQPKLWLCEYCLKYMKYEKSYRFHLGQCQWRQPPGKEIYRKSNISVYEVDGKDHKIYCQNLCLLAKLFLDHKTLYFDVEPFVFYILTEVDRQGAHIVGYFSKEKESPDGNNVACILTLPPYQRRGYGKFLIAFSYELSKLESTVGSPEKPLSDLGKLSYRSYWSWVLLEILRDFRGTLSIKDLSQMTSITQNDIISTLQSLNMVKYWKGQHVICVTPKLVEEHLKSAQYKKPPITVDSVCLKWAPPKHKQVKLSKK
Chain of KAT6A Full length enzyme (Q92794 other isoform, or with tags, fused parts or gaps): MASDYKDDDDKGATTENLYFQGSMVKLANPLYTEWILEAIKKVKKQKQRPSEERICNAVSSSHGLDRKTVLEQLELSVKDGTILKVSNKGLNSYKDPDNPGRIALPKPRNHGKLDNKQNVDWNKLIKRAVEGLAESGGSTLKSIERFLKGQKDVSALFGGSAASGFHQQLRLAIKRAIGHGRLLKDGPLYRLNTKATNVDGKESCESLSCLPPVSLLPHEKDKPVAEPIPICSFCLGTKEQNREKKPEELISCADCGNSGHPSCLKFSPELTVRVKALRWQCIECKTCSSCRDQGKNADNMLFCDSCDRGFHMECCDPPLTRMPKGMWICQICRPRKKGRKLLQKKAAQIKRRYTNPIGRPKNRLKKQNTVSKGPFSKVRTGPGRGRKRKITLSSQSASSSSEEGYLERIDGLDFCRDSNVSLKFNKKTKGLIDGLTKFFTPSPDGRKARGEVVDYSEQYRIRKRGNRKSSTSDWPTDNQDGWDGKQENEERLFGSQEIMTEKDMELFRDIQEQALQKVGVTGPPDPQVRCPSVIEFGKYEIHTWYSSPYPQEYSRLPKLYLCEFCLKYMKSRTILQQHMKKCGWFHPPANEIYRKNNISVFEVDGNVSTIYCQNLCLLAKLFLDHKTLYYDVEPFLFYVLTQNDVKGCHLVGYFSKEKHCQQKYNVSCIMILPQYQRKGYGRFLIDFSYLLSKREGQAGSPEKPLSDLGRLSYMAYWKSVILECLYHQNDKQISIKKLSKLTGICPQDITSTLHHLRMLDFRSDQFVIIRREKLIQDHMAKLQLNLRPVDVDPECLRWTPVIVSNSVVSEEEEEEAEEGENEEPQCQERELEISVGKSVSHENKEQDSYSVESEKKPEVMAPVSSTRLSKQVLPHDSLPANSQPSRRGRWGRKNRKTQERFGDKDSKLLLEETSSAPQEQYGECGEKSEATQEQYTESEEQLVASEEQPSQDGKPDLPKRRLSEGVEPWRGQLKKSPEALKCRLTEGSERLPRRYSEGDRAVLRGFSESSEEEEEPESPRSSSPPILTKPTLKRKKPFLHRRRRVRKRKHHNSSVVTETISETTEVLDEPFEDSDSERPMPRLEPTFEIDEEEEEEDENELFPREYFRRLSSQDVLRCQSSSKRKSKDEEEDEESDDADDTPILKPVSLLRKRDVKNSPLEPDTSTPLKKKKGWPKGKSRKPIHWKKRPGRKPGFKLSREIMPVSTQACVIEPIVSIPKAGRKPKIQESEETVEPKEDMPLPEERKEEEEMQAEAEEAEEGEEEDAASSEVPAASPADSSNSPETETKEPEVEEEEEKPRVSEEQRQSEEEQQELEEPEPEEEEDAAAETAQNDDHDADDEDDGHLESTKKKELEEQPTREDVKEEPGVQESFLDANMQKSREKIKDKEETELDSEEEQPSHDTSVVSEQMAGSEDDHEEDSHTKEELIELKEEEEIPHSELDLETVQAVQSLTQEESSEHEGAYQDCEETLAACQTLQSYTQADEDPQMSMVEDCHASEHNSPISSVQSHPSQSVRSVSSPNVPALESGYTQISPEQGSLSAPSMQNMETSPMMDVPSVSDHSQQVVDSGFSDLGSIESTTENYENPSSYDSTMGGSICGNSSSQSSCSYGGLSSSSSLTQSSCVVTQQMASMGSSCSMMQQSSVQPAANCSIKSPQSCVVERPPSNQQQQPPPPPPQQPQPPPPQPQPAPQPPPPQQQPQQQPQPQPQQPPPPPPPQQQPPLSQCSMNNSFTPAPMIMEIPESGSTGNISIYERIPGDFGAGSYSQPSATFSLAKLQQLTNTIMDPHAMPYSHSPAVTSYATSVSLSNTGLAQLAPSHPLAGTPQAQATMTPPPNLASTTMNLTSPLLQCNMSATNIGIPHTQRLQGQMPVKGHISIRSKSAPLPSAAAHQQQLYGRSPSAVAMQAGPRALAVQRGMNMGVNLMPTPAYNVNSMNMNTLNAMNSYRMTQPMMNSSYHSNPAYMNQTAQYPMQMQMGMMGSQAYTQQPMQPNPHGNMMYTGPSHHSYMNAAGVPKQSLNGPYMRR

As usually defined, the Ki is a dissociation constant, usually derived from enzyme kinetics or from competition with a known ligand. Take `COc1cccc(OC)c1S(=O)(=O)Nc1noc2cc(Nc3cc[nH]n3)cc(OC)c12` [Example 01, 2,6-Dimethoxy-N-{4-methoxy-6-[(1H-pyrazol-3-yl)amino]-1,2-benzoxazol-3-yl}benzene-1-sulfonamide]: the Ki on KAT6A Full length enzyme is 0.4 nM; in assay [1], 37.7 nM; in assay [2] it was 37 nM; in assay [3] it was 131 nM; on KAT8 Full length enzyme, 455 nM; at KAT5 Full length enzyme, 441 nM.
As for `COc1cc2c(NS(=O)(=O)c3ccc(Cl)cc3OC)noc2cc1Nc1cc[nH]n1` [Example 27, 4-chloro-2-methoxy-N-{5-methoxy-6-[(1H-pyrazol-3-yl)amino]-1,2-benzoxazol-3-yl}benzene-1-sulfonamide], the Ki was 1.3 nM at KAT6A Full length enzyme; 74.7 nM in assay [1]; 124 nM in assay [2]; 220 nM in assay [3]; 893 nM at KAT8 Full length enzyme; 390 nM on KAT5 Full length enzyme.
Regarding `CCc1nc(Nc2cc3onc(NS(=O)(=O)c4c(OC)cccc4OC)c3cc2OC)n[nH]1` [Example 40, N-{6-[(5-ethyl-1H-1,2,4-triazol-3-yl)amino]-5-methoxy-1,2-benzoxazol-3-yl}-2,6-dimethoxybenzene-1-sulfonamide], the Ki on KAT6A Full length enzyme is 3.1 nM; in assay [1], 49.1 nM; in assay [2] it was 156 nM; in assay [3] it was 526 nM; on KAT8 Full length enzyme it was more than 16300 nM; on KAT5 Full length enzyme, 4600 nM.
Turning to `CCOc1cc(C)ccc1S(=O)(=O)Nc1noc2cc(Nc3cc[nH]n3)c(OC)cc12` [Example 29, 2-ethoxy-N-{5-methoxy-6-[(1H-pyrazol-3-yl)amino]-1,2-benzoxazol-3-yl}-4-methylbenzene-1-sulfonamide], the inhibition constant Ki on KAT6A Full length enzyme worked out at 1 nM; in assay [1] it was 40.5 nM; in assay [2], 49.1 nM; in assay [3], 182 nM; on KAT8 Full length enzyme, 1380 nM; on KAT5 Full length enzyme, 594 nM.
Consider `COc1cc2c(NS(=O)(=O)c3c(OC)cccc3OC)noc2cc1Nc1cc(C2CC2)n[nH]1` [Example 47, N-{6-[(3-cyclopropyl-1H-pyrazol-5-yl)amino]-5-methoxy-1,2-benzoxazol-3-yl}-2,6-dimethoxybenzene-1-sulfonamide], for which the inhibitory constant (Ki) at KAT6A Full length enzyme was 0.8 nM; in assay [1], 1.9 nM; in assay [2], 2.2 nM; in assay [3], 5 nM; on KAT8 Full length enzyme, 1220 nM; at KAT5 Full length enzyme, 131 nM.
`CCn1ccc(Nc2cc3onc(NS(=O)(=O)c4c(OC)cccc4OC)c3cc2OC)n1` [Example 39, N-{6-[(1-ethyl-1H-pyrazol-3-yl)amino]-5-methoxy-1,2-benzoxazol-3-yl}-2,6-dimethoxybenzene-1-sulfonamide]: the Ki was 6.1 nM on KAT6A Full length enzyme; 75.3 nM in assay [1]; 98.2 nM in assay [2]; 175 nM in assay [3]; more than 32600 nM at KAT8 Full length enzyme; 1750 nM at KAT5 Full length enzyme.
In the case of `CCOc1cc(C)c(F)cc1S(=O)(=O)Nc1noc2cc(Nc3cc[nH]n3)c(OC)cc12` [Example 77, 2-ethoxy-5-fluoro-N-{5-methoxy-6-[(1H-pyrazol-3-yl)amino]-1,2-benzoxazol-3-yl}-4-methylbenzene-1-sulfonamide], the Ki at KAT6A Full length enzyme turned out to be 0.6 nM; in assay [1], 76.1 nM; in assay [2] it was 162 nM; in assay [3], 213 nM; at KAT8 Full length enzyme, 2760 nM; on KAT5 Full length enzyme, 243 nM.
On to `COc1cc2c(NS(=O)(=O)c3cc4c(cc3OC)CCCC4)noc2cc1Nc1cc(C)n[nH]1` [Example 82, 3-methoxy-N-{5-methoxy-6-[(3-methyl-1H-pyrazol-5-yl)amino]-1,2-benzoxazol-3-yl}-5,6,7,8-tetrahydronaphthalene-2-sulfonamide], for which the Ki at KAT6A Full length enzyme was found to be 0.1 nM; in assay [1], 7.5 nM; in assay [2], 18.3 nM; in assay [3] it was 31.8 nM; on KAT8 Full length enzyme, 467 nM; at KAT5 Full length enzyme, 33.8 nM.
`CCOc1cc(C)c(F)cc1S(=O)(=O)Nc1noc2cc(Nc3cc(C(C)C)[nH]n3)c(OC)cc12` [Example 79, 2-ethoxy-5-fluoro-N-(5-methoxy-6-{[5-(propan-2-yl)-1H-pyrazol-3-yl]amino}-1,2-benzoxazol-3-yl)-4-methylbenzene-1-sulfonamide]: the Ki at KAT6A Full length enzyme is 5.1 nM; in assay [1], 25.2 nM; in assay [2], 26.5 nM; in assay [3], 119 nM; on KAT8 Full length enzyme, 6570 nM; at KAT5 Full length enzyme, 692 nM.
`COc1cc2c(NS(=O)(=O)c3ccccc3OC)noc2cc1Nc1cc[nH]n1` [Example 22, 2-methoxy-N-{5-methoxy-6-[(1H-pyrazol-3-yl)amino]-1,2-benzoxazol-3-yl}benzene-1-sulfonamide]: the Ki on KAT6A Full length enzyme stood at 0.9 nM; in assay [1] it was 108 nM; in assay [2] it was 186 nM; in assay [3] it was 300 nM; at KAT8 Full length enzyme, 1700 nM; on KAT5 Full length enzyme, 488 nM.
As to `COc1cc2c(NS(=O)(=O)c3ccccc3OC)noc2cc1Nc1cc(C)n[nH]1` [Example 06, 2-Methoxy-N-{5-methoxy-6-[(3-methyl-1H-pyrazol-5-yl)amino]-1,2-benzoxazol-3-yl}benzene-1-sulfonamide], the Ki at KAT6A Full length enzyme is 0.8 nM; in assay [1], 47.1 nM; in assay [2] it was 50.5 nM; in assay [3], 148 nM; on KAT8 Full length enzyme, more than 13000 nM; at KAT5 Full length enzyme, 300 nM.
As to `COc1cc2c(NS(=O)(=O)c3c(OC)cccc3OC)noc2cc1Nc1cc(C(C)C)n[nH]1` [Example 50, 2,6-dimethoxy-N-(5-methoxy-6-{[3-(propan-2-yl)-1H-pyrazol-5-yl]amino}-1,2-benzoxazol-3-yl)benzene-1-sulfonamide], the Ki was 4.5 nM at KAT6A Full length enzyme; 28.4 nM in assay [1]; 22.8 nM in assay [2]; 113 nM in assay [3]; 709 nM at KAT8 Full length enzyme; 634 nM on KAT5 Full length enzyme.
With `CCn1cnc(Nc2cc3onc(NS(=O)(=O)c4c(OC)cccc4OC)c3cc2OC)n1` [Example 41, N-{6-[(1-ethyl-1H-1,2,4-triazol-3-yl)amino]-5-methoxy-1,2-benzoxazol-3-yl}-2,6-dimethoxybenzene-1-sulfonamide], the Ki at KAT6A Full length enzyme is 6 nM; in assay [1], 25.6 nM; in assay [2] it was 94.2 nM; in assay [3], 359 nM; at KAT8 Full length enzyme it was more than 16300 nM; at KAT5 Full length enzyme, 3390 nM.
On to `COc1cc2c(NS(=O)(=O)c3c(OC)cccc3OC)noc2cc1Nc1n[nH]c(C)n1` [Example 36, 2,6-dimethoxy-N-{5-methoxy-6-[(5-methyl-1H-1,2,4-triazol-3-yl)amino]-1,2-benzoxazol-3-yl}benzene-1-sulfonamide], for which the Ki on KAT6A Full length enzyme came out at 1 nM; in assay [1], 93 nM; in assay [2], 106 nM; in assay [3] it was 501 nM; at KAT8 Full length enzyme, 2990 nM; at KAT5 Full length enzyme it was 1080 nM.
`CCc1cc(Nc2cc3onc(NS(=O)(=O)c4c(OC)cccc4OC)c3cc2OC)[nH]n1` [Example 02, N-{6-[(3-ethyl-1H-pyrazol-5-yl)amino]-5-methoxy-1,2-benzoxazol-3-yl}-2,6-dimethoxybenzene-1-sulfonamide]: the Ki on KAT6A Full length enzyme was 1.1 nM; in assay [1], 3.5 nM; in assay [2], 4.8 nM; in assay [3], 19.5 nM; at KAT8 Full length enzyme, 2270 nM; on KAT5 Full length enzyme, 305 nM.
On to `COc1cc2c(NS(=O)(=O)c3c(OC)cc([C@H]4COCCO4)cc3OC)noc2cc1Nc1cc(C2CC2)[nH]n1` [Example 146], for which the Ki at KAT6A Full length enzyme is 0.9 nM; in assay [1], 2.4 nM; in assay [2] it was 1.7 nM; in assay [3], 3.2 nM; at KAT8 Full length enzyme, 865 nM; on KAT5 Full length enzyme it was 31.4 nM.
Regarding `COc1cc2c(NS(=O)(=O)c3cc(C(C)C)c(C)cc3OC)noc2cc1Nc1cc[nH]n1` [Example 26, 2-methoxy-N-{5-methoxy-6-[(1H-pyrazol-3-yl)amino]-1,2-benzoxazol-3-yl}-4-methyl-5-(propan-2-yl)benzene-1-sulfonamide], the Ki stood at 0.6 nM on KAT6A Full length enzyme; 14.7 nM in assay [1]; 71.5 nM in assay [2]; 206 nM in assay [3]; 154 nM at KAT8 Full length enzyme; 189 nM on KAT5 Full length enzyme.
For the compound `CCn1cc(Nc2cc3onc(NS(=O)(=O)c4c(OC)cccc4OC)c3cc2OC)nn1` [Example 42, N-{6-[(1-ethyl-1H-1,2,3-triazol-4-yl)amino]-5-methoxy-1,2-benzoxazol-3-yl}-2,6-dimethoxybenzene-1-sulfonamide], the Ki was 10.7 nM on KAT6A Full length enzyme; 26.7 nM in assay [1]; 30.8 nM in assay [2]; 316 nM in assay [3]; more than 16300 nM at KAT8 Full length enzyme; 7120 nM at KAT5 Full length enzyme.
`COc1cc2c(NS(=O)(=O)c3c(OC)cccc3OC)noc2cc1Nc1cc(C)n[nH]1` [Example 84, 2,6-dimethoxy-N-{5-methoxy-6-[(3-methyl-1H-pyrazol-5-yl)amino]-1,2-benzoxazol-3-yl}benzene-1-sulfonamide]: the Ki on KAT6A Full length enzyme was 0.2 nM; in assay [1], 12.2 nM; in assay [2], 10.1 nM; in assay [3] it was 50.6 nM; on KAT8 Full length enzyme it was 2970 nM; on KAT5 Full length enzyme it was 82.3 nM.
